The results in this text go back to patent US20260356839A1, “DIRECT SYNTHESIS OF N-(3-SUBSTITUTED-CHROMAN-4-YL)-7H- PYRROLO[2,3-D]PYRIMIDIN-4-AMINES AND DERIVATIVES THEREOF” (MITOKININ, INC., priority 2022, published 2026).

pEC50: −log10 of the molar value.

Holding throughout (assay type): cell-based
Data set [1] can be described thus: Cytotoxicity in the mt-Keima assay cells (FACS, DAPI). Particulars: human, hela mkyp cells. On the procedure:
(§1) HeLa cells expressing mt-Keima and YFP-Parkin (HeLa MKYP) were plated at 10,000 cells/well in 96 well plates along with Mitokinin compounds at various concentrations. Following 16 hrs of incubation, cells were treated with 1 μM FCCP/oligomycin for 6 hours, then analyzed via FACS for the presence of mitochondria in lysosomes (as determined by an emissions spectrum shift from the pH-sensitive mt-Keima tag). Additionally, cells treated with 25 μM Mitokinin compound but not treated with FCCP/oligomycin were analyzed for cytotoxicity.

Data set [2] can be described thus: In Vitro Mitotoxicity (glucose/galactose) Assay. Particulars: human, skov3 cells. On the procedure: Briefly, SKOV3 cells (ATCC HTB-77) were plated in DMEM (Corning 10-013-CV) medium containing 25 mM glucose or DMEM with no glucose (Gibco 11966-025) supplemented with 10 mM galactose at 9,000 cells/well in 96 well plates (Corning costar 3610). 24 hrs later, compounds, in DMSO, were added at various concentrations to a final 0.1% DMSO for all wells. Following 20 hours of incubation with compound, all wells had their growth medium replaced with DMEM containing 25 mM of glucose followed by the addition of Promega CellTiter-Glo® reagent as per manufacturer's instructions. After a 15 minute incubation cellular ATP levels were read out using a Promega GloMax® DiscoverMicroplate Reader.
The ratio of relative CellTiter-Glo values from cells grown in galactose to cells grown in glucose was determined (gal/glc ratio). The gal/glc ratio vs concentration is then graphed, and non-linear regression is used to find the highest concentration of MTK compound at which gal/glc>0.80 (the “highest mito-safe dose”, or IC20). The Mito-Safety Index in Table 2 is equal to the highest mito-safe dose divided by the mt-Keima EC50 dose.

Data set [3] relates to HeLa cells expressing mt-Keima and YFP-Parkin (HeLa MKYP). Put plainly: Human mt-Keima Mitophagy Assay. Particulars: 16 hrs compound, then 1 μM FCCP/oligomycin for 6 hours, read-out: Mitophagy induction EC50. On the procedure:
as §1
The above compound was prepared using the synthetic methods detailed herein, and evaluated for PINK1 activity. Additional exemplary PINK1 modulators for which the synthetic methods described herein can be used are described in WO 2021/168446

Usually pEC50 stands for the negative decadic logarithm of the EC50, by convention in mol/L.

On to `C[C@@H]1CN([C@H]2COc3cc(F)ccc3[C@@H]2Nc2ncnc3[nH]c(C(F)(F)F)cc23)CCO1`, for which the MNTC in data set [1] (no FO, safe means DAPI + < 20%, read-out: Highest safe dose (cytotoxicity; no FO; safe means DAPI+ < 20%)) was found to be 21.9 µM. Moreover, in data set [1] (with 1 μM FCCP/oligomycin (FO), read-out: Max % death with 1 μM FO), the cytotoxicity was determined as 29.6%. The selectivity ratio in data set [2] (highest mito-safe dose divided by the mt-Keima EC50 dose, read-out: Mito-Safety Index (highest safe dose/EC50)) is 135. Moreover, in data set [2] (mitotox or cytotox, highest concentration at which gal/glc > 0.80 (IC20), 20 hours, read-out: Highest safe dose (mitotox or cytotox)), the IC20 at 20 h was 17.3 µM. Besides, the pEC50 in data set [3] is 6.89.
